The text below walks through data of US20230026232A1, “AHR INHIBITORS AND USES THEREOF” (Ikena Oncology, Inc., priority 2019, published 2023).

“Also recorded” adds a separate entry of the source.

The nature of data set [1]: Intrinsic dissolution in 0.5% Tween 80. As to conditions: 0.5% Tween 80, 100 rpm, 37° C. It is filed as physicochemical. Here is the method:
Milled and as-received API samples were weighed and compressed into a compact using a hydraulic press at 3,000 psi for 60 seconds. Compacts were mounted on intrinsic dissolution apparatus and dissolution study was conducted using USP dissolution apparatus in 250 mL of 0.5% Tween 80 solution at 100 rpm at 37° C. in duplicate. Aliquots (1.0 mL) of dissolution media are taken at selected time-points from each dissolution vessel at 5 minute intervals from 5 to 40 minutes. Each sample was centrifuged at 14,000 rpm for 3 minutes and the supernatant was samples and diluted with diluent for HPLC analysis (Table 7). The retention time of Compound A is about 1.5 minutes.
The Intrinsic dissolution performance of the jet-milled API vs. as received API was conducted to observe any increase in dissolution by particle size reduction. FIG. 8 and Table 15 below show the intrinsic dissolution results.

A further data set concerns AHR. Kind of data set: Pharmacodynamics: VAG539-induced CYP1A1 mRNA in mouse liver and spleen. It is filed as in vivo, C57BL/6 mice. As to conditions: 25 mg/kg Compound A oral. As to the method:
The pharmacodynamic effect of Compound A on the inhibition of AHR-dependent gene expression in liver and spleen was examined in C57BL/6 mice.
Mice were sacrificed at 4 and 10 hours post-dose and RNA was extracted and gene expression of CYP1A1 and the housekeeping gene mouse glyceraldehyde 3-phosphate dehydrogenase were quantified. CYP1A1 mRNA expression levels for each dose group for liver and spleen tissues were normalized to the control group.

Data set [2] can be described thus: Phase 1 dose-escalation study: safety. The class given is in vivo. The conditions noted are these: 200 mg, 400 mg, 800 mg, and 1200 mg QD, human patients, fed state. The source says: This is a first-in-human (FIH), single-arm, dose-escalation and expansion study to evaluate the safety, tolerability, PK, pharmacodynamics, and preliminary antitumor activity of Compound A administered orally in patients with advanced solid tumors and urothelial carcinoma. Subject enrollment and continuous safety assessment will be guided by a mTPI-2 design (Guo, 2017). Decisions for dose escalation and de-escalation will be made by a Safety Review Committee (SRC) comprised of the enrolling study Investigators and the Sponsor. To assess evidence of preliminary antitumor activity, a Simon 2-stage design (Simon, 1989) is used.
Toxicity is evaluated according to National Cancer Institute Common Terminology Criteria for Adverse Events (AEs) (NCI-CTCAE) v5.0. DLT events are defined herein. AEs will be assessed, and laboratory values (chemistry, hematology, coagulation, thyroid function and urinalysis as specified herein), vital signs, and 12-lead triplicate electrocardiograms (ECGs) are obtained to evaluate the safety and tolerability of Compound A.
A modified Toxicity Probability Interval (mTPI-2) design (Guo, 2017) with a target DLT rate of approximately 30% is applied for dose escalation and confirmation to determine the Compound A RP2D. Several dose levels of Compound A, planned from 200 mg QD to 1600 mg daily, are explored. […]

Data set [3] is described as follows: Phase 1 dose-escalation study: interim cohort pharmacokinetics. The class given is in vivo, human. The conditions noted are these: Cycle 2 Day 1 (C2D1). As to the method: Serial blood samples are obtained to characterize the plasma PK of Compound A and its major active metabolites. The initial sampling strategy is based on the predicted human PK of this compound. If in the course of evaluating the PK, it is determined that an alternative sampling scheme would be more informative, then that alternative sampling scheme may be implemented if the total amount of blood and blood draws obtained for PK is not increased. Moreover, the total number of samples may be decreased at any time if the initial sampling scheme is considered unnecessarily intensive.
Interim cohort pharmacokinetics were assessed on parent (Compound A) and two active metabolites (Compound B and Compound C). […] Compound B metabolite ratio is increased on C2D1 in cohorts above 200 mg dosages. […] Without wishing to be bound or limited by theory, elimination rate limited kinetics likely contributing to the accumulation of Compound B through on-target inhibition of CYP1A1.

A short description of data set [4]: Nonclinical safety studies incl. 28-day GLP study in rat. It is filed as in vivo. The conditions noted are these: rats. The source says:
The nonclinical safety of Compound A has been evaluated in a series of pharmacological, single-dose and repeated-dose toxicological studies in rodent and non-rodent species including 28-day Good Laboratory Practice (GLP) studies in rat and monkeys. […] All changes were resolved or resolving after 2 weeks of dosing cessation, except for the testicular changes in rats. The nonclinical safety assessment from these studies supports clinical evaluation of Compound A in humans. The initial planned dose of Compound A for this study is 200 mg once daily (QD), based on evaluation of the Compound A nonclinical safety data.

The test system of data set [5] is other receptors, transporters, and kinases. Put plainly: Selectivity for AHR over other receptors, transporters, and kinases. The text has this:
Compound A is a selective AHR antagonist being developed as an orally administered therapeutic. […] Compound A inhibits CYP1A1 and interleukin (IL)-22 gene expression and leads to an increase in pro-inflammatory cytokines, such as IL-2 and IL-9.

On to `CC(C)c1cnn2c(N[C@@H]3CCc4[nH]c5ccccc5c4C3)nc(-c3cncc(F)c3)nc12` [Compound A, (R)—N-(2-(5-fluoropyridin-3-yl)-8-isopropylpyrazolo[1,5-a][1,3,5]triazin-4-yl)-2,3,4,9-tetrahydro-1H-carbazol-3-amine], for which, in data set [1], the “IDR (intrinsic dissolution rate)” value is 0.85 ug/min*cm^2. In the data set on AHR (with 30 mg/kg VAG539), the “inhibition of CYP1A1 mRNA increases induced by VAG539 in the liver” value is “Complete inhibition”. The “inhibition of CYP1A1 mRNA induction in the spleen” value in the data set with AHR (with 30 mg/kg VAG539, at 4 hours) is on record as “complete inhibition”. Besides, the “serious adverse events (SAEs)” value in data set [2] was “without any drug-related serious adverse events; also recorded: no serious adverse events”. Moreover, the “dose proportionality of PK” value in data set [3] is listed as “greater than dose proportional”. Moreover, the “noteworthy findings in nonclinical safety studies” value in data set [4] was “non-glandular stomach ulceration and edema; also recorded: seminiferous tubule degeneration and debris in the epididymis lumen”. The “selectivity for AHR over other receptors, transporters, and kinases” value in data set [5] is “highly selective”.
